Four molecules from patent US8815221B2, “Composition used for skin whitening, plant extracted skin whitening composition and composition having a skin whitening effect” (Industrial Technology Research Institute, priority 2009, dated 2014) can be followed below.

Values joined by “and” are separate entries in the source; they are usually repeats but may differ in a detail not shown here. Equal entries are not always repeated.

One assay deals with Mouse melanoma B16-F0. The experiment in a line: Melanin inhibition test (melanin content analysis). In kind it is cell-based. As to conditions: concentration of 100 μg/ml, B16 cells, 48 hours, read-out: Melanin content inhibiting rate. How it is done:
Mouse melanoma B16-F0 (ATCC CRL-6322, bought from Food Industry Research and Development Institute (FIRDI) (331 Shih-Pin Road, Hsinchu, 300 Taiwan R.O.C.)) was cultured in a medium (Dulbecco's MEM, DMEM) containing 10% fetal bovine serum and 1% penicillin-streptomycin under a temperature of 37° C., in a 5% CO2 incubator.
2. Melanin Content Analysis
Inhibition of B16 Cell Melanin by Extracts:
After a test sample was added to the B16 cells in the medium for 48 hours, the medium was removed. The B16 cells were washed twice with the PBS buffer and then 300 μl of a 1N NaOH which was preheated at a temperature of 70° C. was added to the B16 cells and the B16 cells were, placed in a 60° C. incubator for 60 minutes. Next, 200 μl of the 1N NaOH which had been added to the B16 cells mention above was added to a 96 well plate to determined the absorbance value at 405 nm. The formula for calculating the melanin content is shown in the following: Melanin content=(M/M0)×100%
M: absorbance value for B16 cells being treated with sample
M0: absorbance value for B16 cells not being treated with sample

Another assay deals with T1, Tyrosinase (Sigma T3824) (Agaricus bisporus, UniProt C7FF04).
T1 construct: purchased Sigma T3824
The experiment in a line: Tyrosinase inhibition test. Type of assay: biochemical. The following applies: L-Dopa substrate; for IC50: read-out: 50% tyrosinase inhibitory concentration (IC50) (converted); for Tyrosinase inhibiting rate (%) (100 μg/ml) / inhibition at 100 µg/mL: concentration of 100 μg/ml; for inhibition at 100 µg/mL: read-out: Tyrosinase inhibiting rate (%) (100 μg/ml); for inhibition at 125 µg/mL: concentration of 125 μg/ml, read-out: Tyrosinase inhibiting rate. How it is done: Tyrosinase Inhibition Test
1. A tyrosinase solution using Tyrosinase (Sigma T3824) was prepared, wherein after diluted with a 0.1 M phosphate buffer, a 0.1 U/μl tyrosinase solution was obtained.
2. A L-Dopa solution using L-Dopa (Sigma D9628) was prepared, wherein after diluted with a 0.1 M phosphate buffer, a 1 mM L-Dopa solution was obtained and then was placed a dark environment.
3. A test sample solution was prepared comprising 10 mg/ml of a sample solution diluted with 100% of DMSO. Then the test sample solution was further diluted for require concentrations using a 0.1 M phosphate buffer.
4. 50 μl/well of the prepared test sample solution mentioned above was added into the wells of a 96 well plate (note that the same diluted concentration of DMSO for the test sample solution was also added into the wells of a 96 well plate and used for the blank group) and then 90 μl/well of the prepared 0.1 U/μl tyrosinase solution mentioned above was added thereto (the dC control group was added the 0.1 M phosphate buffer but not the 0.1 U/μl tyrosinase solution). The 96 well plate was placed under a temperature of 37° C. and mixed at 450 rpm for 5 minutes and then placed in an ELISA reader (Molecular Devices M2). The wave length of the ELISA reader was set at 492 nm to determine absorbance values of the solutions in the 96 well plate, wherein two absorbance values were determined and the average value therefrom was used as a background value. Next, 60 μl/well of the prepared 1 mM L-Dopa solution mentioned above was added to the 96 well plate (the dD control group was added the 0.1 M phosphate buffer not the 1 mM L-Dopa solution) and then the 96 well plate was placed under a temperature of 37° C. in a dark environment and mixed at 450 rpm for 15 minutes and then placed in a ELISA reader (Molecular Devices M2). The wave length of the ELISA reader was set at 492 nm to determine absorbance values of the solutions in the 96 well plate, wherein two absorbance values were determined and the average value therefrom was used as a measurement value. After the background value was subtracted from the measurement value, the tyrosinase inhibiting rate of the sample was calculated. The formula for calculating the tyrosinase inhibiting rate of the sample is shown in the following: (A−A0)−(B−B0)−dC−dD/(A−A0)×100% […]
A: absorbance value of the blank group
B: absorbance value of the sample
A0: background value of the blank group
B0: background value of the sample dC: absorbance variation for the sample only reacted with the L-Dopa dD: absorbance variation for the sample only reacted with the tyrosinase

T1 sequence (C7FF04 1-392 limits assumed): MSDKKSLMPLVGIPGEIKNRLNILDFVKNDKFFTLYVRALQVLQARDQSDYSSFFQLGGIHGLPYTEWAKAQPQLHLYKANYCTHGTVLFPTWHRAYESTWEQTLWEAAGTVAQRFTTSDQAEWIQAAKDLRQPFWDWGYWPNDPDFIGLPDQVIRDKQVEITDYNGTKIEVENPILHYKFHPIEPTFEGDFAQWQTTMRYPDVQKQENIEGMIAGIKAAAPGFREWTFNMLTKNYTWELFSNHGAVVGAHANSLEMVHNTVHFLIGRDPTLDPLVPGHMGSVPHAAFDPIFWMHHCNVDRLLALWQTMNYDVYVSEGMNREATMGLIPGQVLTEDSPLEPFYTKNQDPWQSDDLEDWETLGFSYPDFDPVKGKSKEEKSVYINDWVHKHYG

As for `O=C(/C=C/c1ccc(O)cc1)NCCCCN(CCCNC(=O)/C=C/c1ccc(O)cc1)C(=O)/C=C/c1ccc(O)cc1` [Compound 1], the inhibition at 100 µg/mL with Mouse melanoma B16-F0 was approximately 19.9%. Further, on Tyrosinase (Sigma T3824), the IC50 was < 63.4 µM and 62 µM; the “Tyrosinase inhibiting rate (%) (100 μg/ml)” value stood at 61.2 ± 2.5%; the inhibition at 100 µg/mL is approximately 62%. Moreover, the “Tyrosinase inhibiting rate (%) (100 μg/ml)” value at Tyrosinase (Sigma T3824) (listed as compound 1) was “about 61.2±2.5%”.
`O=C(/C=C/c1ccc(O)c(O)c1)NCCCCN(CCCNC(=O)/C=C/c1ccc(O)c(O)c1)C(=O)/C=C/c1ccc(O)c(O)c1` [Compound 4]: on Tyrosinase (Sigma T3824), the IC50 was 29.4 µM and < 30.1 µM; the inhibition at 100 µg/mL worked out at 62.2 ± 27.2%; the inhibition at 125 µg/mL stood at 74.5 ± 16.1%. Further, the “Tyrosinase inhibiting rate (%) (100 μg/ml)” value on Tyrosinase (Sigma T3824) (listed as Structure (III)) is given as “about 63%”.
Consider `O=C(/C=C/c1ccccc1O)NCCCCN(CCCNC(=O)/C=C/c1ccccc1O)C(=O)/C=C/c1ccccc1O` [Compound 3], for which, on Tyrosinase (Sigma T3824), the IC50 was 752 µM, the inhibition at 100 µg/mL is 10.4 ± 0.1% and the inhibition at 125 µg/mL is 13.2 ± 1.1%.
The corresponding values for `COc1cc(/C=C/C(=O)NCCCCN(CCCNC(=O)/C=C/c2ccc(O)c(OC)c2)C(=O)/C=C/c2ccc(O)c(OC)c2)ccc1O` [Compound 2] are 335 µM, 15 ± 1.7% and 29.2 ± 2%.
